Patent EP0048954A2, “Beta-lactam compounds, process for the preparation thereof and intermediate products for the preparation thereof” (SAGAMI CHEMICAL RESEARCH CENTER, priority 1980, dated 1982)
In brackets after ≈: the same amount, converted by molar mass. Where a name gives a salt, the structure may show the parent alone.

Key:
Experiment in all cases: Antibacterial activity, minimum inhibition concentration (method of The Chemotherapy Association, Japan)
Assay type in all cases: cell-based
Proteus rettgeri NIH-96 = conditions: Providencia rettgeri, NIH96, strain I: Proteus rettgeri NIH-96; read-out: minimum inhibition concentration
Excerpt: (§1) The abbreviations A to P will be used in the following Tables 2 to 8.
(§2) Test results are shown in terms of the minimum inhibition concentration (µg/mℓ.) in the following Tables 2 to 8.

Proteus vulgaris OX-19 = conditions: Proteus vulgaris, OX19, strain H: Proteus vulgaris OX-19; read-out: minimum inhibition concentration
Excerpt: as §1, §2

[1] = tested on: Pseudomonas aeruginosa NCTC-10490; conditions: Pseudomonas aeruginosa, NCTC10490, strain M: Pseudomonas aeruginosa NCTC-10490; read-out: minimum inhibition concentration
Protocol: (§3) Antibacterial activities of the compounds according to this invention, which had been prepared in the preceding Examples, were measured according to the method prescribed by The Committee of Amendment of "The method for measurement of the minimum inhibition concentration", The Chemotherapy Association, Japan (See Chemotherapy, Vol. 22, No. 6, pp. 1126 - 1128 (1974) and Vol. 29, No. 1, pp. 76 - 79 (1981)).
as §1, §2

Escherichia coli NIHJ = conditions: Escherichia coli, strain K: Escherichia coli NIHJ; read-out: minimum inhibition concentration
Protocol: as §3, §1, §2

[2] = tested on: Citrobactor freundii NIH-10018 -68; conditions: strain O: Citrobactor freundii NIH-10018 -68; read-out: minimum inhibition concentration
Protocol: as §3, §1, §2

[3] = tested on: Bacillus subtilis ATCC 6633; conditions: for MIC: Bacillus subtilis, ATCC6633, strain B: Bacillus subtilis ATCC 6633, read-out: minimum inhibition concentration
Protocol: as §3, §1, §2

[4] = tested on: Enterobactor cloacae NCTC-9394; conditions: strain N: Enterobactor cloacae NCTC-9394; read-out: minimum inhibition concentration
Protocol: as §3, §1, §2

[5] = tested on: Proteus mirabillis B-30-2 IFO-3849; conditions: strain G: Proteus mirabillis B-30-2 IFO-3849; read-out: minimum inhibition concentration
Protocol: as §3, §1, §2

Escherichia coli NIHJC-2 = conditions: Escherichia coli, NIHJC2, strain L: Escherichia coli NIHJC-2; read-out: minimum inhibition concentration
Protocol: as §3, §1, §2

[6] = tested on: Serratia marcescens IFO-3736; conditions: Serratia marcescens, IFO3736, strain F: Serratia marcescens IFO-3736; read-out: minimum inhibition concentration
Protocol: as §3, §1, §2

[7] = tested on: Staphylococcus aureus 6538-P; conditions: strain A: Staphylococcus aureus 6538-P; read-out: minimum inhibition concentration
Protocol: as §3, §1, §2

[8] = tested on: Salmonella typhimurium 3173; conditions: Salmonella enterica, TYPHIMURIUM, strain D: Salmonella typhimurium 3173; read-out: minimum inhibition concentration
Protocol: as §3, §1, §2

Proteus morgani Kono = conditions: strain J: Proteus morgani Kono; read-out: minimum inhibition concentration
Protocol: as §3, §1, §2

Serratia marcescens 1023 = conditions: Serratia marcescens, 1023, strain E: Serratia marcescens 1023; read-out: minimum inhibition concentration
Protocol: as §3, §1, §2

Klebsiella pneumoniae = conditions: Klebsiella pneumoniae, strain C: Klebsiella pneumoniae; read-out: minimum inhibition concentration
Protocol: as §3, §1, §2

| Structure (SMILES) | MIC (Proteus rettgeri NIH-96) | MIC (Proteus vulgaris OX-19) | MIC [1] | MIC (Escherichia coli NIHJ) | MIC [2] | minimum inhibition concentration ([3]; strain B: Bacillus subtilis ATCC 6633) | MIC [4] | MIC [5] | MIC (Escherichia coli NIHJC-2) | MIC [6] | MIC [7] | MIC [8] | MIC (Proteus morgani Kono) | MIC (Serratia marcescens 1023) | MIC (Klebsiella pneumoniae) | MIC [3] |
| --- | --- | --- | --- | --- | --- | --- | --- | --- | --- | --- | --- | --- | --- | --- | --- | --- |
| Cn1nnnc1SCC1=C(C(=O)O)N2C(=O)C(NC(=O)C(=C(Cl)Cl)c3csc(N)n3)C2SC1 (stereo not drawn) [6-(2), 7-[2-dichloromethylene-2-(2-aminothiazol-4-yl)-acetamido]-3-(l-methyl-lH-tetrazol-5-yl)thiomethyl-3-cephem-4-carboxylic acid] | < 0.025 µg/mL | 0.1 µg/mL (≈ 0.182 µM) | 3.12 µg/mL (≈ 5.69 µM) | < 0.025 µg/mL | 6.25 µg/mL (≈ 11.4 µM) | 6.25 µg/mL (≈ 11.4 µM) | 1.56 µg/mL (≈ 2.84 µM) | 12.5 µg/mL (≈ 22.8 µM) | 12.5 µg/mL (≈ 22.8 µM) | 25 µg/mL (≈ 45.5 µM) | 0.78 µg/mL (≈ 1.42 µM) | 6.25 µg/mL (≈ 11.4 µM) | 6.25 µg/mL (≈ 11.4 µM) | 12.5 µg/mL (≈ 22.8 µM) | 12.5 µg/mL (≈ 22.8 µM) | – |
| CC(=O)OCC1=C(C(=O)O)N2C(=O)C(NC(=O)C(=C(Cl)Cl)c3ccc(Cl)cc3)[C@H]2SC1 (stereo partly drawn) [Compound 29, 7-[2-dichloromethylene-2-(4-chlorophenyl)acetamido]-3-acetoxymethyl-3-cephem-4-carboxylic acid] | 3.12 µg/mL (≈ 6.18 µM) | > 100 µg/mL | > 100 µg/mL | 100 µg/mL (≈ 198 µM) | > 100 µg/mL | – | > 100 µg/mL | > 100 µg/mL | > 100 µg/mL | > 100 µg/mL | > 100 µg/mL | > 100 µg/mL | > 100 µg/mL | 12.5 µg/mL (≈ 24.7 µM) | > 100 µg/mL | 1.56 µg/mL (≈ 3.08 µM) |
| CC1(C)S[C@@H]2C(NC(=O)C(=C(Cl)Cl)c3cccs3)C(=O)N2[C@H]1C(=O)O (stereo partly drawn) [Compound 37, 6-[2-dichloromethylene-2-(2-thienyl)acetamido]-penicillanic acid] | 0.25 µg/mL (≈ 0.593 µM) | 50 µg/mL (≈ 119 µM) | 6.25 µg/mL (≈ 14.8 µM) | 0.78 µg/mL (≈ 1.85 µM) | > 100 µg/mL | – | 100 µg/mL (≈ 237 µM) | > 100 µg/mL | > 100 µg/mL | > 100 µg/mL | 0.1 µg/mL (≈ 0.237 µM) | > 100 µg/mL | > 100 µg/mL | 0.05 µg/mL (≈ 0.119 µM) | > 100 µg/mL | 1.56 µg/mL (≈ 3.7 µM) |
| Nc1nc(C(=CCl)C(=O)NC2C(=O)N3C(C(=O)[O-])=C(C[n+]4ccccc4)CSC23)cs1 (stereo not drawn) [Compound 24, 7-[2-chloromethylene-2-(2-aminothiazol-4-yl)acetamido]-3-pyridiniummethyl-3-cephem-4-carboxylic acid betaine] | 0.78 µg/mL (≈ 1.63 µM) | 3.12 µg/mL (≈ 6.54 µM) | > 100 µg/mL | 1.56 µg/mL (≈ 3.26 µM) | 25 µg/mL (≈ 52.3 µM) | – | 12.5 µg/mL (≈ 26.2 µM) | 12.5 µg/mL (≈ 26.2 µM) | 25 µg/mL (≈ 52.3 µM) | 50 µg/mL (≈ 105 µM) | 6.25 µg/mL (≈ 13.1 µM) | 25 µg/mL (≈ 52.3 µM) | 25 µg/mL (≈ 52.3 µM) | 25 µg/mL (≈ 52.3 µM) | 25 µg/mL (≈ 52.3 µM) | 25 µg/mL (≈ 52.3 µM) |
| CC(=O)OCC1=C(C(=O)O)N2C(=O)C(NC(=O)C(=C(Cl)Cl)c3ccc(Br)s3)[C@H]2SC1 (stereo partly drawn) [Compound 32, 7-[2-dichloromethylene-2-(5-bromo-2-thienyl)acetamido]-3-acetoxymethyl-3-cephem-4-carboxylic acid] | 0.78 µg/mL (≈ 1.4 µM) | 100 µg/mL (≈ 180 µM) | 50 µg/mL (≈ 89.9 µM) | 25 µg/mL (≈ 44.9 µM) | > 100 µg/mL | – | > 100 µg/mL | > 100 µg/mL | > 100 µg/mL | > 100 µg/mL | 0.1 µg/mL (≈ 0.18 µM) | > 100 µg/mL | > 100 µg/mL | 12.5 µg/mL (≈ 22.5 µM) | > 100 µg/mL | 6.25 µg/mL (≈ 11.2 µM) |
| CC(=O)OCC1=C(C(=O)O)N2C(=O)C(NC(=O)C(=C(Cl)Cl)c3ccc(O)cc3)[C@H]2SC1 (stereo partly drawn) [Compound 2, 7-[2-dichloromethylene-2-(4-hydroxyphenyl)acetamido]-3-acetoxymethyl-3-cephem-4-carboxylic acid] | 0.2 µg/mL (≈ 0.41 µM) | 6.25 µg/mL (≈ 12.8 µM) | 6.25 µg/mL (≈ 12.8 µM) | 0.39 µg/mL (≈ 0.8 µM) | > 100 µg/mL | – | > 100 µg/mL | > 100 µg/mL | > 100 µg/mL | > 100 µg/mL | 0.39 µg/mL (≈ 0.8 µM) | 100 µg/mL (≈ 205 µM) | > 100 µg/mL | 6.25 µg/mL (≈ 12.8 µM) | > 100 µg/mL | 3.12 µg/mL (≈ 6.41 µM) |
| CC(=O)OCC1=C(C(=O)O)N2C(=O)C(NC(=O)C(=C(Cl)Cl)c3ccc(NC(=O)OC(C)(C)C)cc3)C2SC1 (stereo not drawn) [4-(1), 7-[2-dichloromethylene-2-(4-tert-butoxycarbonyl-aminophenyl)acetamido]-3-acetoxymethyl-3-cephem-4-carboxylic acid] | 6.25 µg/mL (≈ 10.7 µM) | > 100 µg/mL | 50 µg/mL (≈ 85.3 µM) | 6.25 µg/mL (≈ 10.7 µM) | > 100 µg/mL | – | > 100 µg/mL | > 100 µg/mL | > 100 µg/mL | > 100 µg/mL | 0.39 µg/mL (≈ 0.665 µM) | > 100 µg/mL | > 100 µg/mL | 6.25 µg/mL (≈ 10.7 µM) | > 100 µg/mL | 6.25 µg/mL (≈ 10.7 µM) |
| CC(=O)OCC1=C(C(=O)O)N2C(=O)C(NC(=O)C(=C(Cl)Cl)c3ccc(C)cc3)[C@H]2SC1 (stereo partly drawn) [Compound 28, 7-[2-dichloromethylene-2-(4-methylphenyl)acetamido]-3-acetoxymethyl-3-cephem-4-carboxylic acid] | 3.12 µg/mL (≈ 6.44 µM) | 100 µg/mL (≈ 206 µM) | 50 µg/mL (≈ 103 µM) | > 100 µg/mL | > 100 µg/mL | – | > 100 µg/mL | > 100 µg/mL | > 100 µg/mL | > 100 µg/mL | > 100 µg/mL | > 100 µg/mL | > 100 µg/mL | 6.25 µg/mL (≈ 12.9 µM) | > 100 µg/mL | 3.12 µg/mL (≈ 6.44 µM) |
| Cn1nnnc1SCC1=C(C(=O)O)N2C(=O)C(NC(=O)C(=CCl)c3csc(N)n3)C2SC1 (stereo not drawn) [11-(3), 7-[2-chloromethylene-2-(2-aminothiazol-4-yl)-acetamido]-3-(1-methyl-lH-tetrazol-5-yl)thiomethyl-3-cephem-4-carboxylic acid sodium salt] | < 0.00625 µg/mL | 0.025 µg/mL | 1.56 µg/mL | < 0.00625 µg/mL | 0.78 µg/mL | – | 0.2 µg/mL | 0.39 µg/mL | 0.78 µg/mL | 0.78 µg/mL | 0.39 µg/mL | 0.78 µg/mL | 0.2 µg/mL | 6.25 µg/mL | 0.78 µg/mL | 3.12 µg/mL |
| CC(=O)OCC1=C(C(=O)O)N2C(=O)C(NC(=O)C(=C(Cl)Cl)c3cccc(O)c3)[C@H]2SC1 (stereo partly drawn) [Compound 3, 7-[2-dichloromethylene-2-(3-hydroxyphenyl)acetamido]-3-acetoxymethyl-3-cephem-4-carboxylic acid] | 0.1 µg/mL (≈ 0.205 µM) | 0.76 µg/mL (≈ 1.56 µM) | 6.25 µg/mL (≈ 12.8 µM) | 0.2 µg/mL (≈ 0.41 µM) | 25 µg/mL (≈ 51.3 µM) | – | 12.5 µg/mL (≈ 25.7 µM) | 50 µg/mL (≈ 103 µM) | 50 µg/mL (≈ 103 µM) | 50 µg/mL (≈ 103 µM) | 0.39 µg/mL (≈ 0.8 µM) | 12.5 µg/mL (≈ 25.7 µM) | 100 µg/mL (≈ 205 µM) | 0.25 µg/mL (≈ 0.513 µM) | 50 µg/mL (≈ 103 µM) | 3.12 µg/mL (≈ 6.41 µM) |
| CC(=O)OCC1=C(C(=O)O)N2C(=O)C(NC(=O)C(=C(Cl)Cl)c3ccco3)[C@H]2SC1 (stereo partly drawn) [Compound 33, 7-[2-dichloromethylene-2-(2-furyl)acetamido]-3-acetoxymethyl-3-cephem-4-carboxylic acid] | 0.1 µg/mL (≈ 0.217 µM) | 6.25 µg/mL (≈ 13.5 µM) | 12.5 µg/mL (≈ 27.1 µM) | 1.56 µg/mL (≈ 3.38 µM) | 50 µg/mL (≈ 108 µM) | – | 25 µg/mL (≈ 54.2 µM) | 100 µg/mL (≈ 217 µM) | 100 µg/mL (≈ 217 µM) | 100 µg/mL (≈ 217 µM) | 0.39 µg/mL (≈ 0.845 µM) | 50 µg/mL (≈ 108 µM) | > 100 µg/mL | 25 µg/mL (≈ 54.2 µM) | 100 µg/mL (≈ 217 µM) | 6.25 µg/mL (≈ 13.5 µM) |
| CC(=O)OCC1=C(C(=O)O)N2C(=O)C(NC(=O)C(=C(Cl)Cl)c3cccn3C)[C@H]2SC1 (stereo partly drawn) [Compound 36, 7-[2-dichloromethylene-2-(1-methyl-2-pyrrolyl)acetamido]-3-acetoxymethyl-3-cephem-4-carboxylic acid] | 1.56 µg/mL (≈ 3.29 µM) | 50 µg/mL (≈ 105 µM) | > 100 µg/mL | 50 µg/mL (≈ 105 µM) | > 100 µg/mL | – | > 100 µg/mL | > 100 µg/mL | > 100 µg/mL | > 100 µg/mL | 0.78 µg/mL (≈ 1.64 µM) | > 100 µg/mL | > 100 µg/mL | 100 µg/mL (≈ 211 µM) | > 100 µg/mL | 12.5 µg/mL (≈ 26.4 µM) |
